Patent publication US6958142B2, “Nasal spray formulation and method” (Balance Pharmaceuticals, Inc., priority 2002, dated 2005)
In brackets after ≈: the same amount, converted by molar mass. Several values for one entry are separate records, joined by “and”; a condition that tells them apart may be missing. Equal entries are not always repeated. Where two headings read alike, the source gives them in different places.

Columns and labels:
[1] = at 25° C.; cited from earlier work
[2] = Serum testosterone average concentration over 24 hours after intranasal testosterone
Experimental: In another study, five women were treated with intranasal testosterone.

physchem = conditions: aqueous with cosolvent or surfactant or cyclodextrin, thermodynamic from solid
[3] = test system: premenopausal females with uterine fibroids; experiment: Example 8: reduction of bleeding into the normal range; format: in vivo, human; conditions: deslorelin 1 mg/day intranasal
Experimental: (§1) Premenopausal females (n=265) with uterine fibroids were recruited for participation in a 12 month double blind study. The women were randomly assigned to treatment in one of the following five study arms: Deslorelin at a daily dose of 1 mg was administered intranasally using a conventional metered spray delivery device. The intranasal preparation was a 100 μL daily nasal spray containing 1.0 mg deslorelin. […] Women with uterine fibroids often experience very heavy bleeding (menorrhagia) and uterine enlargement leading to pelvic pain and pressure symptoms. Clinical benefit was assessed by measuring changes in bleeding score (percent of subjects with reduction of bleeding into the normal range) and uterine volume. Shown in Table 9A are the percent of subjects responding (reduction of bleeding into the normal range) after 3 and 6 months of treatment.

[4] = test system: heavy bleeding secondary to uterine leiomyomata; experiment: Example 3: bleeding score from daily bleeding calendars; format: in vivo, human
Experimental: (§2) The compound was administered using a commercially available nasal sprayer that delivered a 50 μL spray volume. The daily dose was administered by application of 50 μL to each nostril once per day, for a total daily volume of 100 μL. During the 12 week treatment period the patients kept daily bleeding calendars and underwent clinical assessments at scheduled intervals.
(§3) A 12 week study was performed to establish an effective dose of deslorelin for controlling heavy bleeding secondary to uterine leiomyomata. Forty-one premenopausal women completed the study and are identified as Subject Nos. 1 through 41. The women were divided into test groups for treatment with intranasal deslorelin as follows:
(§4) For one complete menstrual cycle prior to treatment, each woman completed a daily bleeding calendar. Eligible subjects were then treated with deslorelin at the assigned dosage once per day by intranasal application. During the 12 weeks of daily intranasal administration, each woman kept a daily bleeding calendar, completed quality of life questionnaires, and underwent clinical assessment and laboratory testing.

[5] = test system: bone mineral density of the lumbar spine; conditions: in vivo
Excerpt: Bone mineral density (BMD) of the lumbar spine was obtained by dual-energy X-ray absorptiometry (DEXA) prior to and after six months of drug treatment.

[6] = test system: premenopausal females with uterine fibroids; experiment: Example 8: change in uterine volume; format: in vivo, human; conditions: 6 Months of treatment compared to baseline
Experimental: as §1

[7] = test system: premenopausal women with uterine leiomyomata; experiment: Example 3: uterine size (uterine volume from ultrasound); format: in vivo, human
Experimental: as §2, §3, §4

[8] = test system: ovarian estrogen and progesterone production; experiment: Example 3: serum hormone levels
Experimental: In a first study, deslorelin was administered alone to determine an appropriate dose for treatment of an exemplary benign gynecological disorder, uterine leiomyomata (fibroids). More specifically, the dose appropriate to control the heavy bleeding secondary to uterine leiomyomata was determined. […] The compound was administered using a commercially available nasal sprayer that delivered a 50 μL spray volume. The daily dose was administered by application of 50 μL to each nostril once per day, for a total daily volume of 100 μL. During the 12 week treatment period the patients kept daily bleeding calendars and underwent clinical assessments at scheduled intervals. Clinical assessments included grading of nasal irritation (Table 5A), determination of uterine size (Table 5B), and serum hormone levels (Table 5C).
Eligible subjects were then treated with deslorelin at the assigned dosage once per day by intranasal application. During the 12 weeks of daily intranasal administration, each woman kept a daily bleeding calendar, completed quality of life questionnaires, and underwent clinical assessment and laboratory testing. […] Clinical assessments included grading of nasal irritation (Table 5A), determination of uterine size (Table 5B), and serum hormone levels (Table 5C).

[9] = Deslorelin 0.5 mg/day, Baseline
[10] = Deslorelin 0.5 mg/day, End of Week 4
[11] = Deslorelin 0.5 mg/day, End of Week 8
[12] = Deslorelin 0.5 mg/day, End of Week 12
[13] = Deslorelin 1 mg/day, End of Week 4
[14] = Deslorelin 1 mg/day, End of Week 8
[15] = Deslorelin 1 mg/day, End of Week 12
[16] = Deslorelin 2 mg/day, End of Week 4
[17] = Deslorelin 2 mg/day, End of Week 8
[18] = Deslorelin 2 mg/day, End of Week 12

OC[C@H]1O[C@@H]2O[C@H]3[C@H](O)[C@@H](O)[C@@H](O[C@H]4[C@H](O)[C@@H](O)[C@@H](O[C@H]5[C@H](O)[C@@H](O)[C@@H](O[C@H]6[C@H](O)[C@@H](O)[C@@H](O[C@H]7[C@H](O)[C@@H](O)[C@@H](O[C@H]8[C@H](O)[C@@H](O)[C@@H](O[C@H]9[C@H](O)[C@@H](O)[C@@H](O[C@H]%10[C@H](O)[C@@H](O)[C@@H](O[C@H]1[C@H](O)[C@H]2O)O[C@@H]%10CO)O[C@@H]9CO)O[C@@H]8CO)O[C@@H]7CO)O[C@@H]6CO)O[C@@H]5CO)O[C@@H]4CO)O[C@@H]3CO [δ-cyclodextrin]
water solubility [1]: 8.19 g/100 mL

C[C@]12CC[C@H]3[C@@H](CCC4=CC(=O)CC[C@@]43C)[C@@H]1CC[C@@H]2O [Testosterone, testosterone]
Molar Ratio steroid/HPβCD (both steroids together, HPβCD 10 mg/mL): 0.31 | Molar Ratio steroid/HPβCD (both steroids together, HPβCD 40 mg/mL): 0.34 | Molar Ratio steroid/HPβCD (both steroids together, HPβCD 70 mg/mL): 0.35 | Molar Ratio steroid/HPβCD (both steroids together, HPβCD 100 mg/mL): 0.34 | Molar Ratio steroid/HPβCD (both steroids together, HPβCD 130 mg/mL): 0.39 | Molar Ratio steroid/HPβCD (both steroids together, HPβCD 160 mg/mL): 0.40 | Molar Ratio steroid/HPβCD (both steroids together, HPβCD 190 mg/mL): 0.40 | Molar Ratio steroid/HPβCD (both steroids together, HPβCD 250 mg/mL): 0.38 | Molar Ratio steroid/HPβCD (steroid alone, HPβCD 10 mg/mL): 0.39 | Molar Ratio steroid/HPβCD (steroid alone, HPβCD 40 mg/mL): 0.30 | Molar Ratio steroid/HPβCD (steroid alone, HPβCD 70 mg/mL): 0.38 | Molar Ratio steroid/HPβCD (steroid alone, HPβCD 100 mg/mL): 0.33 | Molar Ratio steroid/HPβCD (steroid alone, HPβCD 130 mg/mL): 0.43 | Molar Ratio steroid/HPβCD (steroid alone, HPβCD 160 mg/mL): 0.41 | Molar Ratio steroid/HPβCD (steroid alone, HPβCD 190 mg/mL): 0.42 | Molar Ratio steroid/HPβCD (steroid alone, HPβCD 220 mg/mL): 0.40 | Molar Ratio steroid/HPβCD (steroid alone, HPβCD 250 mg/mL): 0.41 | Testosterone average concentration over 24 hours ([2]; intranasal 250 μg testosterone in preparation with deslorelin and estradiol, Day 1, individual subjects): 26.7 ng/dL (2×) and 19.0 ng/dL and 18.8 ng/dL and 19.1 ng/dL | Testosterone average concentration over 24 hours ([2]; intranasal 250 μg testosterone in preparation with deslorelin and estradiol, Day 8, individual subjects): 29.9 ng/dL and 17.1 ng/dL and 16.5 ng/dL and 16.2 ng/dL and 24.1 ng/dL | Testosterone average concentration over 24 hours ([2]; intranasal 250 μg testosterone, average of both observations (Day 1, Day 8) in each of the 5 subjects): 21.4 ng/dL | solubility (physchem; Estradiol and Testosterone solubility, both steroids together in aqueous HPβCD 10 mg/mL): 0.658 mg/mL (≈ 2.28 mM) | solubility (physchem; Estradiol and Testosterone solubility, both steroids together in aqueous HPβCD 40 mg/mL): 2.82 mg/mL (≈ 9.77 mM) | solubility (physchem; Estradiol and Testosterone solubility, both steroids together in aqueous HPβCD 70 mg/mL): 5.07 mg/mL (≈ 17.6 mM) | solubility (physchem; Estradiol and Testosterone solubility, both steroids together in aqueous HPβCD 100 mg/mL): 7.11 mg/mL (≈ 24.7 mM) | solubility (physchem; Estradiol and Testosterone solubility, both steroids together in aqueous HPβCD 130 mg/mL): 10.6 mg/mL (≈ 36.6 mM) | solubility (physchem; Estradiol and Testosterone solubility, both steroids together in aqueous HPβCD 160 mg/mL): 13.4 mg/mL (≈ 46.5 mM) | solubility (physchem; Estradiol and Testosterone solubility, both steroids together in aqueous HPβCD 190 mg/mL): 15.7 mg/mL (≈ 54.6 mM) | solubility (physchem; Estradiol and Testosterone solubility, both steroids together in aqueous HPβCD 250 mg/mL): 20 mg/mL (≈ 69.3 mM) | solubility (physchem; solubility, steroid alone in aqueous HPβCD 10 mg/mL): 0.81 mg/mL (≈ 2.81 mM) | solubility (physchem; solubility, steroid alone in aqueous HPβCD 40 mg/mL): 2.54 mg/mL (≈ 8.81 mM) | solubility (physchem; solubility, steroid alone in aqueous HPβCD 70 mg/mL): 5.63 mg/mL (≈ 19.5 mM) | solubility (physchem; solubility, steroid alone in aqueous HPβCD 100 mg/mL): 6.82 mg/mL (≈ 23.6 mM) | solubility (physchem; solubility, steroid alone in aqueous HPβCD 130 mg/mL): 11.6 mg/mL (≈ 40.4 mM) | solubility (physchem; solubility, steroid alone in aqueous HPβCD 160 mg/mL): 13.9 mg/mL (≈ 48.1 mM) | solubility (physchem; solubility, steroid alone in aqueous HPβCD 190 mg/mL): 16.5 mg/mL (≈ 57.3 mM) | solubility (physchem; solubility, steroid alone in aqueous HPβCD 220 mg/mL): 18.6 mg/mL (≈ 64.5 mM) | solubility (physchem; solubility, steroid alone in aqueous HPβCD 250 mg/mL): 21.7 mg/mL (≈ 75.2 mM)

CCNC(=O)[C@@H]1CCCN1C(=O)[C@H](CCCN=C(N)N)NC(=O)[C@H](CC(C)C)NC(=O)[C@@H](Cc1c[nH]c2ccccc12)NC(=O)[C@H](Cc1ccc(O)cc1)NC(=O)[C@H](CO)NC(=O)[C@H](Cc1c[nH]c2ccccc12)NC(=O)[C@H](Cc1cnc[nH]1)NC(=O)[C@@H]1CCC(=O)N1 [Deslorelin, (pyro)Pro-His-Trp-Ser-Tyr-DTrp-Leu-Arg-Pro-ethylamide]
% with reduction of bleeding into the normal range ([3]; 3 Months): 69% | % with reduction of bleeding into the normal range ([3]; 6 Months): 92% | Bleeding Score ([4]; Deslorelin 0.5 mg/day, Baseline Score, 0 no bleeding, 5 normal flow, 10 or greater menorrhagia): 10.9 | Bleeding Score ([4]; Deslorelin 0.5 mg/day, Weeks 1-4): 6.6 | Bleeding Score ([4]; Deslorelin 0.5 mg/day, Weeks 5-8): 3.5 | Bleeding Score ([4]; Deslorelin 0.5 mg/day, Weeks 9-12): 2.6 | Bleeding Score ([4]; Deslorelin 1 mg/day, Baseline Score): 10.8 | Bleeding Score ([4]; Deslorelin 1 mg/day, Weeks 1-4): 7.8 | Bleeding Score ([4]; Deslorelin 1 mg/day, Weeks 5-8): 0.4 | Bleeding Score ([4]; Deslorelin 1 mg/day, Weeks 9-12): 1.7 | Bleeding Score ([4]; Deslorelin 2 mg/day, Baseline Score): 14.1 | Bleeding Score ([4]; Deslorelin 2 mg/day, Weeks 1-4): 6.6 | Bleeding Score ([4]; Deslorelin 2 mg/day, Weeks 5-8): 1.2 | Bleeding Score ([4]; Deslorelin 2 mg/day, Weeks 9-12): 0.6 | effectiveness (in words) ([4]; all tested doses (0.5, 1.0, 2.0 mg/day)): partially or completely effective with reduction of bleeding, associated pain, and uterine size | bleeding score (in words) ([4]; end of the 12 week study): marked improvement in their bleeding score | Mean Ratio (BMD6 mo/BMDbaseline) [5]: 0.971 | Proportion of Initial Volume (uterine volume) [6]: 0.675 | uterine volume calculated from ultrasound determined dimensions (in words) ([7]; 0.5, 1.0, 2.0 mg/day, 12 weeks): reduction in uterine volume | Uterine Size Mean Difference (end of week 12 minus baseline uterine volume) ([7]; Deslorelin 0.5 mg/day intranasal): −109.6 cm^3 | Uterine Size Mean Difference (end of week 12 minus baseline uterine volume) ([7]; Deslorelin 1 mg/day intranasal): −63.6 cm^3 | Uterine Size Mean Difference (end of week 12 minus baseline uterine volume) ([7]; Deslorelin 2 mg/day intranasal): −246.5 cm^3 | Hormone Levels: Estradiol [8, 9]: 173 pg/mL | Hormone Levels: Progesterone [8, 9]: 641 ng/dL | Hormone Levels: Testosterone [8, 9]: 24 ng/dL | Hormone Levels: Estradiol [8, 10]: 47 pg/mL | Hormone Levels: Progesterone [8, 10]: 40 ng/dL | Hormone Levels: Testosterone [8, 10]: 19 ng/dL | Hormone Levels: Estradiol [8, 11]: 79 pg/mL | Hormone Levels: Progesterone [8, 11]: 30 ng/dL | Hormone Levels: Testosterone [8, 11]: 22 ng/dL | Hormone Levels: Estradiol [8, 12]: 66 pg/mL | Hormone Levels: Progesterone [8, 12]: 37 ng/dL | Hormone Levels: Testosterone [8, 12]: 23 ng/dL | Hormone Levels: Estradiol ([8]; Deslorelin 1 mg/day, Baseline): 123 pg/mL | Hormone Levels: Progesterone ([8]; Deslorelin 1 mg/day, Baseline): 480 ng/dL | Hormone Levels: Testosterone ([8]; Deslorelin 1 mg/day, Baseline): 26 ng/dL | Hormone Levels: Estradiol [8, 13]: 51 pg/mL | Hormone Levels: Progesterone [8, 13]: 12 ng/dL | Hormone Levels: Testosterone [8, 13]: 22 ng/dL | Hormone Levels: Estradiol [8, 14]: 95 pg/mL | Hormone Levels: Progesterone [8, 14]: 25 ng/dL | Hormone Levels: Testosterone [8, 14]: 20 ng/dL | Hormone Levels: Estradiol [8, 15]: 30 pg/mL | Hormone Levels: Progesterone [8, 15]: 10 ng/dL | Hormone Levels: Testosterone [8, 15]: 16 ng/dL | Hormone Levels: Estradiol ([8]; Deslorelin 2 mg/day, Baseline): 184 pg/mL | Hormone Levels: Progesterone ([8]; Deslorelin 2 mg/day, Baseline): 337 ng/dL | Hormone Levels: Testosterone ([8]; Deslorelin 2 mg/day, Baseline): 34 ng/dL | Hormone Levels: Estradiol [8, 16]: 14 pg/mL | Hormone Levels: Progesterone [8, 16]: 12 ng/dL | Hormone Levels: Testosterone [8, 16]: 16 ng/dL | Hormone Levels: Estradiol [8, 17]: 31 pg/mL | Hormone Levels: Progesterone [8, 17]: 14 ng/dL | Hormone Levels: Testosterone [8, 17]: 20 ng/dL | Hormone Levels: Estradiol [8, 18]: 30 pg/mL | Hormone Levels: Progesterone [8, 18]: 13 ng/dL | Hormone Levels: Testosterone [8, 18]: 20 ng/dL
